The values below come from patent publication EP0430037A2, “Process for producing 2-carbon-substituted carbapenem derivatives” (BANYU PHARMACEUTICAL CO., LTD., priority 1989, dated 1991).

For one data set, the system named is S. aureus 4970. The data set can be described thus: Protective effects against experimental infectious disease of mice. In kind it is in vivo, Male mice (ddY). As to conditions: Staphylococcus aureus, 4970, 96 h; oral administration one hour after inoculation of 5 x 10⁵ cells in 5% mucin; mortality four days later; eight mice per group; read-out: ED₅₀. The procedure:
(2) Protective effects against experimental infectious disease of mice
Male mice (ddY) of 4 weeks old having body weights of 20±1 g were employed, and the test was conducted with eight mice per group. Microorganism used: S. aureus 4970
5 x 10⁵ cells of the pathogenic microorganism suspended in 5% mucin were […] injected to each mouse. One hour after the inoculation of the microorganism, the compound of the present invention was orally administered in the form of solutions having various concentrations. Four days later, the mortality of the mice was determined, and the ED₅₀ value was calculated.

Data set [1] in a line: Concentration in blood and recovery rate in urine after oral administration (bioassay). In kind it is in vivo, ddY male mice. As to conditions: mouse, 40 mg/kg orally, mice, bioassay with S. lutea PC 11001, Example 26 quantified as its non-ester form (Example 25); for concentration at 0.25 h: read-out: Concentration in blood 0.25 hr later; for concentration at 0.5 h: read-out: Concentration in blood 0.5 hr later. Here is the method: (3) Concentration in blood and recovery rate in urine
ddY male mice of 4 weeks old
40 mg/kg of the test compound was orally administered to each mouse, and the change with time of the concentration in blood and the recovery rate in urine for from 0 to 6 hours were measured. The quantitative analysis was conducted by a bioassay using S. lutea PC 11001 as the test microorganism. With respect to the compound of Example 26, the quantitative analysis was conducted in the form of its non-ester form i.e. as the compound of Example 25.

In another data set the test system is S. aureus 209P NIHJ JC1. The experiment in a line: Antibacterial activities in vitro (agar plate dilution method). In kind it is cell-based. As to conditions: Staphylococcus aureus; Mueller Hinton agar, inoculum size 10⁶ CFU/mℓ, 37°C for 16 hours. The procedure: (1) Antibacterial activities in vitro The antibacterial activities were measured by the following agar plate dilution method. One platinum loopful of each test microorganism incubated overnight in Mueller Hinton broth, was inoculated to Mueller Hinton agar (inoculum size: 10⁶ CFU/mℓ). Such a culture medium contained a test compound in a predetermined concentration.

For the compound `C=C(C)C1=C(C(=O)OCOC(=O)C(C)(C)C)N2C(=O)[C@H]([C@@H](C)O)[C@H]2[C@H]1C` [Example 26, Pivaloyloxymethyl (1S,5R,6S)-6-((1R)-1-hydroxyethyl)-2-(1-methylvinyl)-1-methylcarbapen-2-em-3-carboxylate], the ED50 in the data set with S. aureus 4970 amounted to 0.36 mg/kg. Moreover, in data set [1] (blood), the concentration at 0.25 h was 44900 ng/mL and the concentration at 0.5 h stood at 29100 ng/mL.
As a reminder, the MIC is the lowest concentration found to suppress growth. Read a low MIC as a more susceptible organism. As to `C=C(C)C1=C(C(=O)O)N2C(=O)[C@H]([C@@H](C)O)[C@H]2[C@H]1C` [Example 25, Sodium (1S,5R,6S)-6-((1R)-1-hydroxyethyl)-2-(1-methylvinyl)-1-methylcarbapen-2-em-3-carboxylate], the ED50 with S. aureus 4970 amounted to 0.34 mg/kg. Also, in data set [1] (blood), the concentration at 0.25 h was determined as 4100 ng/mL and the concentration at 0.5 h was 2900 ng/mL. The concentration at 1 h in data set [1] (blood, read-out: Concentration in blood 1 hr later) was found to be 1600 ng/mL. Moreover, the dose excreted at 6 h in data set [1] (urine, 0-6 hrs) came to 1.8%. The compound further registered a minimum inhibitory concentration (MIC) against S. aureus 209P NIHJ JC1 of 0.05 µg/mL.
